This note sets out measurements from PubChem BioAssay AID624167 (Sanford-Burnham Center for Chemical Genomics, 2012).

Activity calls are given as the source filed them.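 How the source made its calls: active means mean IC50 for reducing PEG3 promoter reporter signal at or below a set limit, with IC50 above the limit in both counter screens; inactive means the rest, including counter screen hits.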

A short description of assay [1]: inhibition of PEG-3 promoter-driven reporter – cell-based, HeLa, luciferase, CREF/GAPDH counter-screen panel, dose response (AID 624167). As to conditions: CREF/GAPDH counter-screens; GAPDH; mean of runs.
The test system of assay [2] is PEG-3. The description is as above. To be noted: HeLa PEG-Prom luciferase reporter, overnight, CREF/GAPDH counter-screens.
The subject of assay [3] is GAPDH. The assay is described as above. To be noted: CREF/GAPDH counter-screens.
The target in assay [4] is PEG-3 (UniProt Q6IN02). The assay is described as above. As to conditions: HeLa PEG-Prom luciferase reporter, overnight, CREF/GAPDH counter-screens, mean of runs.
Assay [5] relates to Rat fibroblasts (CREF). Described as above. As to conditions: CREF/GAPDH counter-screens.
The mark [6] stands for this setting: run 1, dose range 1, individual replicate IC50 per panel.
[7] abbreviates: run 2, dose range 1, individual replicate IC50 per panel.

Chain of PEG-3 (UniProt Q6IN02) (Q6IN02 whole entry, looked up): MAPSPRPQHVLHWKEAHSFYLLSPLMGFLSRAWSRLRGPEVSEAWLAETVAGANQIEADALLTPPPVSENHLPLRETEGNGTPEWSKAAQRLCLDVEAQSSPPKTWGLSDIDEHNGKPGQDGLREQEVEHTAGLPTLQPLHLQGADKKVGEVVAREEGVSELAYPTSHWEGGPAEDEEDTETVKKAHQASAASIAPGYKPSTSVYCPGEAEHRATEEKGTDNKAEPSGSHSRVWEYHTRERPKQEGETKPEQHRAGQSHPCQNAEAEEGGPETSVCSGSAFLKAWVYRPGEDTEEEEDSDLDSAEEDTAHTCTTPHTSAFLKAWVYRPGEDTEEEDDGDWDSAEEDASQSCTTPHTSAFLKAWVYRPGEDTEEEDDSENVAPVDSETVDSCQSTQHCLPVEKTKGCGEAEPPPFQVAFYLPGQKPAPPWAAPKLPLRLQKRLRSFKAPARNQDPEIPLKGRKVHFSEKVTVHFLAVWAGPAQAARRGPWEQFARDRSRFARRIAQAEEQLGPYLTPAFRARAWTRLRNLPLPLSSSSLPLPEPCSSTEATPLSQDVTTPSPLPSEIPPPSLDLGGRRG

`Nc1nonc1-n1nnc(C(=O)N/N=C/c2cc(Br)ccc2O)c1CNc1ccccc1`: the IC50 result in assay [1] was “inactive”. The IC50 in assay [2] (setting [6]) is 4.19 µM; in assay [2] (setting [7]) it was 17.6 µM; in assay [3] (setting [6]), 45.2 µM; in assay [3] (setting [7]), 59.3 µM; in assay [4], 10.9 µM; in assay [5] (mean of runs), 77.8 µM (inactive). Moreover, the IC50 was above 100 µM in assay [5] (setting [6]) and 55.7 µM in assay [5] (setting [7]).

Regarding `COc1ccc(N(C(=O)CCl)C(C(=O)NC2CCCCC2)c2cccnc2)cc1` (configuration not stated), the IC50 entry in assay [1] was “inactive”. In addition, the IC50 in assay [2] (setting [6]) was 6.62 µM; in assay [2] (setting [7]), 9.49 µM; in assay [3] (setting [6]), 40.4 µM; in assay [3] (setting [7]), 39.6 µM; in assay [4], 8.05 µM; in assay [5] (mean of runs) it was 2.68 µM. Also, the half-inhibitory concentration (IC50) was determined as 2.81 µM in assay [5] (setting [6]) and 2.56 µM in assay [5] (setting [7]).

Turning to `COc1ccc(-n2cc(-c3ccccc3)c3c(N4CCOCC4)ncnc32)cc1`, the IC50 in assay [1] was 21.4 µM; in assay [2] (setting [6]), 12.1 µM; in assay [2] (setting [7]) it was 8.51 µM; in assay [3] (setting [6]), 21.3 µM; in assay [3] (setting [7]), 21.4 µM; in assay [4], 10.3 µM. The IC50 in assay [5] (mean of runs) was 68.5 µM (inactive); in assay [5] (setting [6]), 66.9 µM; in assay [5] (setting [7]), 70.1 µM.

`CCC(c1ccc(O)c(O)c1)C(CC)c1ccc(O)c(O)c1` (configuration not stated): the IC50 result in assay [1] was “inactive”. In addition, the IC50 is 14.2 µM in assay [2] (setting [6]); 5.63 µM in assay [2] (setting [7]); 35.6 µM in assay [3] (setting [6]); 33.7 µM in assay [3] (setting [7]); 9.94 µM in assay [4]; 19.9 µM in assay [5] (mean of runs). Moreover, the half-inhibitory concentration (IC50) in assay [5] (setting [6]) was found to be 23 µM; in assay [5] (setting [7]), 16.7 µM.

`Cc1cccc(/C=N/Nc2ccc3ccccc3n2)c1`: the 50% inhibitory concentration (IC50) in assay [2] (setting [6]) was 3.78 µM; in assay [2] (setting [7]) it was 4.58 µM; in assay [4] it was 4.18 µM; in assay [5] (mean of runs) it was 1.41 µM; in assay [5] (setting [6]), 2.44 µM; in assay [5] (setting [7]), 0.37 µM.

Consider `Cc1ccc(-c2cc3c(nn2)-c2ccccc2C3=O)cc1`, for which the IC50 in assay [2] (setting [6]) is 2.56 µM; in assay [2] (setting [7]), 2.95 µM; in assay [4] it was 2.76 µM; in assay [5] (mean of runs) it was 0.337 µM; in assay [5] (setting [6]) it was 0.27 µM; in assay [5] (setting [7]), 0.403 µM.

In the case of `CN(C)c1ccc(/C=C/c2ccc3ccccc3n2)cc1`, the IC50 in assay [2] (setting [6]) was 2.09 µM; in assay [2] (setting [7]), 4.48 µM; in assay [4], 3.29 µM; in assay [5] (mean of runs), 2.69 µM; in assay [5] (setting [6]) it was 2.15 µM; in assay [5] (setting [7]) it was 3.22 µM.

With `Cc1cnc(NC(=O)c2ccc3c(c2)OCCO3)s1`, the 50% inhibitory concentration (IC50) was 0.647 µM in assay [2] (setting [6]); above 100 µM in assay [2] (setting [7]); 0.454 µM in assay [5] (mean of runs); 0.378 µM in assay [5] (setting [6]); 0.53 µM in assay [5] (setting [7]). In assay [4], the IC50 entry was “inactive”.

Regarding `O=C1CCCCC1Sc1nnc(-c2ccc3c(c2)OCO3)o1` (configuration not stated), the concentration for half-maximal inhibition (IC50) was 1.69 µM in assay [2] (setting [6]); 1.71 µM in assay [2] (setting [7]); 1.7 µM in assay [4]; 7.83 µM in assay [5] (mean of runs); 8.19 µM in assay [5] (setting [6]); 7.46 µM in assay [5] (setting [7]).

`O=C(CN1C(=O)c2ccccc2S1(=O)=O)c1ccc2c(c1)OCCO2`: the IC50 is 0.73 µM in assay [2] (setting [6]); 0.415 µM in assay [2] (setting [7]); 0.573 µM in assay [4]; 1.61 µM in assay [5] (mean of runs); 1.28 µM in assay [5] (setting [6]); 1.94 µM in assay [5] (setting [7]).

`O=c1c2ccccc2sc2ccc(C#CC3(O)CCCCC3)cc12`: the half-maximal inhibitory concentration (IC50) in assay [2] (setting [6]) is 2.93 µM; in assay [2] (setting [7]) it was above 100 µM; in assay [5] (mean of runs), 1.81 µM; in assay [5] (setting [6]), 1.36 µM; in assay [5] (setting [7]) it was 2.27 µM. Further, in assay [4], the IC50 entry was “inactive”.

`CN(C)c1ccc(/C=C/c2ccc3c4ccccc4ccc3[n+]2-c2ccccc2)cc1`: the IC50 is 10.5 µM in assay [2] (setting [6]); 9.52 µM in assay [2] (setting [7]); 10 µM in assay [4]; 17.8 µM in assay [5] (mean of runs); 16.9 µM in assay [5] (setting [6]); 18.7 µM in assay [5] (setting [7]).

For the compound `CN(C)c1ccc(/C=C/c2nc3ccccc3s2)cc1`, the 50% inhibitory concentration (IC50) in assay [2] (setting [6]) was 4.73 µM; in assay [2] (setting [7]) it was 7.51 µM; in assay [4], 6.12 µM; in assay [5] (mean of runs) it was 1.56 µM; in assay [5] (setting [6]), 1.17 µM; in assay [5] (setting [7]), 1.95 µM.

Take `CN(c1ccc2nc3ccccc3c(=O)n2n1)C1CCCCC1`: the IC50 in assay [2] (setting [6]) is 3 µM; in assay [2] (setting [7]), 4.94 µM; in assay [4], 3.97 µM; in assay [5] (mean of runs) it was 0.772 µM; in assay [5] (setting [6]), 0.789 µM; in assay [5] (setting [7]), 0.755 µM.

As to `Cc1cc(C(=O)CN2C(=O)c3ccccc3S2(=O)=O)c(C)n1-c1ccccc1`, the IC50 was 2.98 µM in assay [2] (setting [6]); 3.75 µM in assay [2] (setting [7]); 3.36 µM in assay [4]; 7.33 µM in assay [5] (mean of runs); 6.79 µM in assay [5] (setting [6]); 7.88 µM in assay [5] (setting [7]).
